Patent US20200181284A1, “EPIGENETIC INHIBITORS FOR SENSITIZING HEMATOLOGIC OR OTHER MALIGNANCIES TO GLUCOCORTICOID THERAPY” (UNIVERSITY OF SOUTHERN CALIFORNIA, priority 2017, published 2020)

Columns and labels:
NALM-6 cells = assay: shRNA screen: selection of infected NALM-6 cells with dex, viability after each round; format: cell-based, human; conditions: for viability at 0.05 µM: Homo sapiens, 50 nM dexamethasone
Protocol: Transduction: NALM-6 cells were grown in T-175 flasks maintaining a cell density below 2 million cells/ml until a sufficient number of cells were obtained. In order to obtain a sufficient number of cells infected with each shRNA to measure both enrichment and depletion in response to dex selection, we sought to infect >1000 cells with each shRNA. In order to minimize double infection, we targeted an infection rate of ˜30%. For the Cancer library, we estimated that for 1000× coverage of 54,775 shRNAs at a 30% infection rate, we would have to start with ˜200 million cells. To ensure optimal infection, NALM-6 cells were plated at density of 1.5 million cells/ml in 6 well plates. Virus was added at a ratio of 1:10 viral supernatant/NALM-6 culture volume. Cells were the spinfected at 1000×g, 33° C., for 2 hours in the presence of 8 µg/ml polybrene. Cells were then washed in PBS, resuspended in fresh RPMI+10% FBS, and allowed to recover. Our actual infection rate was ˜70%, as measured by flow cytometry using the mCherry marker of the pMK1098 vector, for an approximate coverage of 2000 cells for each shRNA. Cells were then selected for infection using 0.5 µg/ml puromycin for 2 days, washed, and allowed to recover. The infected cells were then expanded and split into 5 pools: Infected (Time 0 or T0), Infected that would be untreated (TF), and three pools that would be treated with dex (R1-3). T0 and TF was composed of 100 million cells. T0 was frozen immediately, and TF was allowed to grow to a density no greater than 3 million cells/ml through the course of the experiment. Since we expected ˜80% death upon treatment, we started with 500 million cells each for R1-3.
Selection: Previous attempts at the screen had been hampered by inconsistent infection and selection with dex. We therefore decided to split TF and R1-3 into two experiments and treat with 50 nM dex, which kills ˜80% of NALM-6 cells in 3 days, and 1 pM dex, which kills >90%. TF samples were treated with equal volumes of DMSO vehicle. A separate TF sample was culture for both the 50 nM and 1 pM experiments. Cells were treated with each of these concentrations for three days, washed, allowed to recover, then treated two more times. From infection to the end of the experiment took 35 days for 50 nM dex and 46 days for 1 pM.
AGEK Screen: Based on the results of the Cancer panel screen, we elected to screen the three other panels (Apoptosis, Gene Expression, Kinases) under 50 nM selection by dex. The screen was performed largely as described above, but our infection rate was <30% for a coverage of ˜900 cells/shRNA.

NALM-6 = assay: Cell death assay (PrestoBlue viability, 3 days); format: cell-based; conditions: Homo sapiens
Protocol: Cell death assays: We used PrestoBlue to measure cell viability in response to knockdown and treatment. Cells were grown to a density of 250,000 cell/ml, then dispensed into black tissue culture plates and grown overnight. In the morning, cells were treated. For both CAL-101 (Selleckchem, S2226) and dex (Sigma, D4902), viability was measured after 3 days. As PrestoBlue measures NADPH/NADH metabolites, the balance of which can be affected by GC treatment, we performed frequent cell count spot checks manually by trypan blue exclusion to ensure that fluorescence measurements reflected true viability. Both CAL-101 and dex were dissolved in ethanol, and used 1:1000 in cell culture for a final ethanol concentration of 0.1%. […] Viabilities and EC50 were then calculated using four parameter non-least squares fitting using Prism 6. qPCR of Causative genes: Cells were grown to a density of 1 million cells/ml, then aliquoted into 6 well plates in the afternoon, then grown overnight. […]
The optimal signal was determined by incubating cells with 1 ^M dex for 0, 4, 8, and 24 hours. […] Each experiment was performed at least three times, and analyzed using GraphPad (Prism 6). Significant differences between drug and control and between either drug alone and combinations was determined by two sided Student's t-test (P-Value<0.05). […]

RCH-ACV = assay: Cell death assay (PrestoBlue viability, 3 days); format: cell-based, human
Protocol: (§1) Cell death assays: We used PrestoBlue to measure cell viability in response to knockdown and treatment. Cells were grown to a density of 250,000 cell/ml, then dispensed into black tissue culture plates and grown overnight. In the morning, cells were treated. For both CAL-101 (Selleckchem, S2226) and dex (Sigma, D4902), viability was measured after 3 days. As PrestoBlue measures NADPH/NADH metabolites, the balance of which can be affected by GC treatment, we performed frequent cell count spot checks manually by trypan blue exclusion to ensure that fluorescence measurements reflected true viability. Both CAL-101 and dex were dissolved in ethanol, and used 1:1000 in cell culture for a final ethanol concentration of 0.1%. Combination treatments were performed in triplicate in 384 well plates with 20 dilutions of dex from 10^M to 0 and 9 dilutions of CAL-101 from 10^M to 0. Viabilities and EC50 were then calculated using four parameter non-least squares fitting using Prism 6. qPCR of Causative genes: Cells were grown to a density of 1 million cells/ml, then aliquoted into 6 well plates in the afternoon, then grown overnight. Cells were then treated with the drugs and times indicated, at which point cells were spun down at 400 g for 5 minutes, the medium aspirated, and the pellet resuspended in 0.7 ml Qiazol/Trizol and frozen. RNA was then isolated using the miRNAeasy protocol. cDNA was then prepared form 1^g of RNA suing SuperScript3, and qPCR performed using BioRad iQ mix. Primers for qPCR were designed using the IDT web site, then tested for each gene. […] Expression levels for each gene were corrected for primer efficiency, normalized to RPL19, then compared to controls (Pfaffl, 2001).
(§2) The optimal signal was determined by incubating cells with 1 ^M dex for 0, 4, 8, and 24 hours. […] Cells were incubated with dex alone, CAL-101 alone, and in combination for 24 hours, then harvested and qPCR performed as described above. Each experiment was performed at least three times, and analyzed using GraphPad (Prism 6). Significant differences between drug and control and between either drug alone and combinations was determined by two sided Student's t-test (P-Value<0.05).
(§3) Three cell lines (NALM6, SUP-B15, and RCH-ACV), one resistant patient sample (HM3101), and one relapsed Phlike xenograft (ALL121) were incubated with increasing concentrations of dex or CAL-101 for 3 days. Cell viability was measured by PrestoBlue staining. Curves, values, and errors are based on at least 3 replicates. Bar plot of the EC50, calculated by four-parameter least-squares fitting (Both plotted and calculated in GraphPad Prism).

SUP-B15 = assay: Cell death assay (PrestoBlue viability, 3 days); format: cell-based, human; conditions: Homo sapiens
Protocol: as §1, §2, §3

[1] = system: relapsed B-ALL cells (ALL121); assay: PDX model of ALL: NSG mice engrafted with ALL121, spleen size and human ALL cells in spleen; format: in vivo; conditions: dex monotherapy 7.5 mg/kg daily, two weeks
Excerpt: As proof of concept, we tested this combination in a PDX model of ALL.

[2] = system: LAX7R and LAX56 primary human B-ALL cells; assay: Survival of primary B-ALL cells co-cultured with OP-9 feeder cells (Annexin V/7AAD); format: cell-based; conditions: 100-200 nM Dex alone, 3 or 5 days
Protocol: Primary ALL cells (LAX7R and LAX56) were established from mouse xenografts derived from patient samples (Adam et al., 2017; Hsieh et al., 2013). They were cultured in 24 well tissue-culture plates on irradiated OP-9 cells with growth medium containing MEM-α with 20% heat-inactivated fetal bovine serum, and 100 IU/ml penicillin and 100 μg/ml streptomycin. On day 3 and day 5 after the addition of drugs, ALL cells were collected, and apoptosis was assessed using PE Annexin V Apoptosis Detection Kit with 7-AAD.
As shown FIGS. 41A-1, 41A-2, 41B-1, and 41B-2, LAX7R (FIGS. 41A-1 and 41A-2) or LAX56 (FIGS. 41B-1 and 41B-2) primary human B-ALL cells were co-cultured with OP-9 feeder cells for 3 days (left) or 5 days (right) in the presence of the indicated drugs, and cell survival was determined by staining with Annexin/7AAD. p-value was calculated using a paired t-test, and different symbols were used to indicate p-values between different groups.+indicates statistical significance (+p≤0.05, ++p≤0.01 and + + + p≤0.001) between Dexamethasone or AZD2811 treated group and DMSO control group; # indicates statistical significance (#p≤0.05, ##p≤0.01 and # # # p≤0.001) between AZD2811+Dexamethasone combination group and AZD2811 group; * indicates statistical difference (*p≤0.05, **p≤0.01, * * *p≤0.001) between combination group and respective Dexamethasone treated groups. Values shown are mean and SD for 3 biological replicates, which are representative of 3 independent experiments.

## C[C@@H]1C[C@H]2[C@@H]3CCC4=CC(=O)C=C[C@]4(C)[C@@]3(F)[C@@H](O)C[C@]2(C)[C@@]1(O)C(=O)CO [dex, dexamethasone]
NALM-6 cells; 1 pM dex
  NALM-6 cells killed: > 90%
NALM-6 cells; 50 nM dex, 3 days
  NALM-6 cells killed: ~80%
NALM-6 cells; NALM-6, Apoptosis, Gene Expression, and Kinase Panels, treatment number 1
  viability at 0.05 µM: 52%
NALM-6 cells; NALM-6, Apoptosis, Gene Expression, and Kinase Panels, treatment number 2
  viability at 0.05 µM: 66%
NALM-6 cells; NALM-6, Apoptosis, Gene Expression, and Kinase Panels, treatment number 3
  viability at 0.05 µM: 65%
NALM-6 cells; NALM-6, Cancer Panel, treatment number 1
  viability at 0.05 µM: 18%
NALM-6 cells; NALM-6, Cancer Panel, treatment number 2
  viability at 0.05 µM: 72%
NALM-6 cells; NALM-6, Cancer Panel, treatment number 3
  viability at 0.05 µM: 58%
NALM-6; NALM-6, 72 h, NALM6, viability after 3 days, read-out: EC50 for dex
  EC50: 3.9 nM
NALM-6; NALM-6, read-out: approximately the EC90 for dex
  EC90: ~62.5 nM
RCH-ACV; Homo sapiens, 72 h, viability after 3 days, estimate, read-out: EC50 for dex
  EC50: 500 nM
RCH-ACV; even at the highest dex concentrations
  viability maintained: ~50%
SUP-B15; 72 h, SUP-B15, viability after 3 days, read-out: EC50 for dex
  EC50: 1.6 nM
SUP-B15; SUP-B15, read-out: approximately the EC90 for dex
  EC90: ~4 nM
[1]
  effect on spleens (spleen size): no effect
[2]
  cell survival: 20-60%
